From patent publication US20260374756A1, “HETEROCYCLIC COMPOUNDS AS INHIBITORS OF MONOACYLGLYCEROL LIPASE (MAGL)” (Hoffmann-La Roche Inc., priority 2022, published 2026)
pIC50: −log10 of the molar value.

Target: T1, hMAGL (Homo sapiens, UniProt Q99685)
T1 sequence (Q99685 1-303): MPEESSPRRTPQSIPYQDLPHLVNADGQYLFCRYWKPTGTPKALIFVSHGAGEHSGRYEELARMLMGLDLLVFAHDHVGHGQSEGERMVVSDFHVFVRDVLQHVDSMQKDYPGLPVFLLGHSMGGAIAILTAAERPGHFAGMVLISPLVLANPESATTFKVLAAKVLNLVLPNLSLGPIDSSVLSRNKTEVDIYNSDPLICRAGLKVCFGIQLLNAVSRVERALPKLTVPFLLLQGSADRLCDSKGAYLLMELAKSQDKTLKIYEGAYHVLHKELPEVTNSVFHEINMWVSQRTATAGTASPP
Assay: 2-AG assay: MAGL inhibition, hydrolysis of 2-arachidonoylglycerol to arachidonic acid followed by mass spectrometry
Format: biochemical
Method in brief: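 Read-out is LC-MS/MS of arachidonic acid released from 2-arachidonoylglycerol (8 μM final), normalised to d8-arachidonic acid internal standard after acetonitrile quench. Enzyme […] and compound were pre-mixed 15 min, then reacted 30 min, both at RT, in Tris/EDTA buffer with 0.01% Tween-20 and 2.5% DMSO.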

Row | pIC50 | Structure (SMILES)
1 | 8.43 | CC(C)(C)c1nnc(CN2CC3(C2)CN(C(=O)N2CC4(CC(n5cnc(C(F)(F)F)n5)C4)C2)C3)s1 [Example 208, [6-[(5-tert-butyl-1,3,4-thiadiazol-2-yl)methyl]-2,6-diazaspiro[3.3]heptan-2-yl]-[6-[3-(trifluoromethyl)-1,2,4-triazol-1-yl]-2-azaspiro[3.3]heptan-2-yl]methanone]
2 | 7.73 | O=C(N1CC2(CC(n3cnc(C(F)(F)F)n3)C2)C1)N1CC2(CN(Cc3cc(C(F)(F)F)[nH]n3)C2)C1 [Example 241, [6-[[5-(trifluoromethyl)-1H-pyrazol-3-yl]methyl]-2,6-diazaspiro[3.3]heptan-2-yl]-[6-[3-(trifluoromethyl)-1,2,4-triazol-1-yl]-2-azaspiro[3.3]heptan-2-yl]methanone]
3 | 6.19 | Cc1nn(CC(F)(F)F)cc1CN1CC2(C1)CN(C(=O)N1CC3(CC(n4cnc(C(F)(F)F)n4)C3)C1)C2 [Example 112, [6-[[3-methyl-1-(2,2,2-trifluoroethyl)pyrazol-4-yl]methyl]-2,6-diazaspiro[3.3]heptan-2-yl]-[6-[3-(trifluoromethyl)-1,2,4-triazol-1-yl]-2-azaspiro[3.3]heptan-2-yl]methanone]
4 | 7.32 | O=C(N1CC2(CC(n3cnc(C(F)(F)F)n3)C2)C1)N1CC2(CN(Cc3cn[nH]c3C(F)(F)F)C2)C1 [Example 49, [6-[[5-(trifluoromethyl)-1H-pyrazol-4-yl]methyl]-2,6-diazaspiro[3.3]heptan-2-yl]-[6-[3-(trifluoromethyl)-1,2,4-triazol-1-yl]-2-azaspiro[3.3]heptan-2-yl]methanone]
5 | 7.97 | CC(C)(C)c1ncc(CN2CC3(C2)CN(C(=O)N2CC4(CC(n5cnc(C(F)(F)F)n5)C4)C2)C3)s1 [Example 56, [6-[(2-tert-butylthiazol-5-yl)methyl]-2,6-diazaspiro[3.3]heptan-2-yl]-[6-[3-(trifluoromethyl)-1,2,4-triazol-1-yl]-2-azaspiro[3.3]heptan-2-yl]methanone]
6 | 6.81 | Cn1cc(CN2CC3(C2)CN(C(=O)N2CC4(CC(n5cnc(C(F)(F)F)n5)C4)C2)C3)c(C(F)(F)F)n1 [Example 191, [6-[[1-methyl-3-(trifluoromethyl)pyrazol-4-yl]methyl]-2,6-diazaspiro[3.3]heptan-2-yl]-[6-[3-(trifluoromethyl)-1,2,4-triazol-1-yl]-2-azaspiro[3.3]heptan-2-yl]methanone]
7 | 7.93 | O=C(N1CC2(CC(Cc3ncn(CC(F)(F)F)n3)C2)C1)N1CC2(CC(n3cnc(C(F)(F)F)n3)C2)C1 [Example 331, [6-[[1-(2,2,2-trifluoroethyl)-1,2,4-triazol-3-yl]methyl]-2-azaspiro[3.3]heptan-2-yl]-[6-[3-(trifluoromethyl)-1,2,4-triazol-1-yl]-2-azaspiro[3.3]heptan-2-yl]methanone]
8 | 7.99 | O=C(N1CC2(CC(Cn3ncnc3C(F)(F)F)C2)C1)N1CC2(CC(n3cnc(C(F)(F)F)n3)C2)C1 [Example 333, [6-[3-(trifluoromethyl)-1,2,4-triazol-1-yl]-2-azaspiro[3.3]heptan-2-yl]-[6-[[5-(trifluoromethyl)-1,2,4-triazol-1-yl]methyl]-2-azaspiro[3.3]heptan-2-yl]methanone]

The next lines start with the compound.

Row | Structure (SMILES) | pIC50
9 | O=C(N1CC2(CC(Cc3cnn(CC(F)(F)F)n3)C2)C1)N1CC2(CC(n3cnc(C4(O)CC4)n3)C2)C1 [Example 202, [6-[3-(1-hydroxycyclopropyl)-1,2,4-triazol-1-yl]-2-azaspiro[3.3]heptan-2-yl]-[6-[[2-(2,2,2-trifluoroethyl)triazol-4-yl]methyl]-2-azaspiro[3.3]heptan-2-yl]methanone] | 7.90
10 | O=C(N1CC2(CC(Cc3nnc(C4(C(F)(F)F)CC4)o3)C2)C1)N1CC2(CC(n3cnc(C(F)(F)F)n3)C2)C1 [Example 7] | 8.60
11 | Cn1cc(CN2CC3(C2)CN(C(=O)N2CC4(CC(n5cnc(C6CC6)n5)C4)C2)C3)c(C(F)(F)F)n1 [Example 192] | 7.77
12 | O=C(N1CC2(CC(Cc3cn(CC(F)(F)F)nn3)C2)C1)N1CC2(CC(n3cnc(C4(O)CC4)n3)C2)C1 [Example 254, [6-[3-(1-hydroxycyclopropyl)-1,2,4-triazol-1-yl]-2-azaspiro[3.3]heptan-2-yl]-[6-[[1-(2,2,2-trifluoroethyl)triazol-4-yl]methyl]-2-azaspiro[3.3]heptan-2-yl]methanone] | 7.35
13 | O=C(N1CC2(CC(Cn3ccnc3C(F)(F)F)C2)C1)N1CC2(CC(c3cc(C4CC4)n[nH]3)C2)C1 [Example 145, [6-(3-cyclopropyl-1H-pyrazol-5-yl)-2-azaspiro[3.3]heptan-2-yl]-[6-[[2-(trifluoromethyl)imidazol-1-yl]methyl]-2-azaspiro[3.3]heptan-2-yl]methanone] | 9.40
14 | O=C(N1CC2(CC(Cn3cc(C(F)(F)F)nn3)C2)C1)N1CC2(CC(n3cnc(C4CC4)n3)C2)C1 [Example 104, [6-(3-cyclopropyl-1,2,4-triazol-1-yl)-2-azaspiro[3.3]heptan-2-yl]-[6-[[4-(trifluoromethyl)triazol-1-yl]methyl]-2-azaspiro[3.3]heptan-2-yl]methanone] | 8.84
15 | O=C(N1CC2(CCN(Cc3ncc(C(F)F)s3)CC2)C1)N1CC2(CC(n3cnc(C(F)(F)F)n3)C2)C1 [Example 31, [7-[[5-(difluoromethyl)thiazol-2-yl]methyl]-2,7-diazaspiro[3.5]nonan-2-yl]-[6-[3-(trifluoromethyl)-1,2,4-triazol-1-yl]-2-azaspiro[3.3]heptan-2-yl]methanone] | 7.88
16 | O=C(N1CC2(CC(Cc3cnn(CC(F)(F)F)c3)C2)C1)N1CC2(CC(n3cnc(C4(O)CC4)n3)C2)C1 [Example 291, [6-[3-(1-hydroxycyclopropyl)-1,2,4-triazol-1-yl]-2-azaspiro[3.3]heptan-2-yl]-[6-[[1-(2,2,2-trifluoroethyl)pyrazol-4-yl]methyl]-2-azaspiro[3.3]heptan-2-yl]methanone] | 7.97
17 | O=C(N1CC2(CC(c3cc(C4CC4)n[nH]3)C2)C1)N1CC2(CN(Cc3nc(C(F)(F)F)co3)C2)C1 [Example 215, [6-(3-cyclopropyl-1H-pyrazol-5-yl)-2-azaspiro[3.3]heptan-2-yl]-[6-[[4-(trifluoromethyl)oxazol-2-yl]methyl]-2,6-diazaspiro[3.3]heptan-2-yl]methanone] | 7.70
18 | Cn1cnc(C#N)c1CN1CC2(C1)CN(C(=O)N1CC3(CC(n4cnc(C5(O)CC5)n4)C3)C1)C2 [Example 282, 5-[[2-[6-[3-(1-hydroxycyclopropyl)-1,2,4-triazol-1-yl]-2-azaspiro[3.3]heptane-2-carbonyl]-2,6-diazaspiro[3.3]heptan-6-yl]methyl]-1-methyl-imidazole-4-carbonitrile] | 5.43
19 | Cn1ncc(C(F)(F)F)c1CN1CCC2(CC1)CN(C(=O)N1CC3(CC(c4cc(C5CC5)n[nH]4)C3)C1)C2 [Example 64, [6-(3-cyclopropyl-1H-pyrazol-5-yl)-2-azaspiro[3.3]heptan-2-yl]-[7-[[2-methyl-4-(trifluoromethyl)pyrazol-3-yl]methyl]-2,7-diazaspiro[3.5]nonan-2-yl]methanone] | 9.49
20 | O=C(N1CC2(CC(n3cnc(C4CC4)n3)C2)C1)N1CC2(CN(Cc3ccnn3C(F)(F)F)C2)C1 [Example 226, [6-(3-cyclopropyl-1,2,4-triazol-1-yl)-2-azaspiro[3.3]heptan-2-yl]-[6-[[2-(trifluoromethyl)pyrazol-3-yl]methyl]-2,6-diazaspiro[3.3]heptan-2-yl]methanone] | 7.46
21 | O=C(N1CC2(CC(Cc3ncn(CC(F)(F)F)n3)C2)C1)N1CC2(CC(n3cnc(C4(O)CC4)n3)C2)C1 [Example 203, [6-[3-(1-hydroxycyclopropyl)-1,2,4-triazol-1-yl]-2-azaspiro[3.3]heptan-2-yl]-[6-[[1-(2,2,2-trifluoroethyl)-1,2,4-triazol-3-yl]methyl]-2-azaspiro[3.3]heptan-2-yl]methanone] | 6.87
22 | N=S(=O)(c1cnn(CC2CC3(C2)CN(C(=O)N2CC4(CC(n5cnc(C(F)F)n5)C4)C2)C3)c1)C(F)(F)F (stereo not shown) [Example 324, [6-[3-(difluoromethyl)-1,2,4-triazol-1-yl]-2-azaspiro[3.3]heptan-2-yl]-[6-[[4-(trifluoromethylsulfonimidoyl)pyrazol-1-yl]methyl]-2-azaspiro[3.3]heptan-2-yl]methanone] | 7.59
23 | O=C(N1CC2(CC(n3cnc(C4CC4)n3)C2)C1)N1CC2(CN(Cc3ncc(C(F)F)s3)C2)C1 [Example 188, [6-(3-cyclopropyl-1,2,4-triazol-1-yl)-2-azaspiro[3.3]heptan-2-yl]-[6-[[5-(difluoromethyl)thiazol-2-yl]methyl]-2,6-diazaspiro[3.3]heptan-2-yl]methanone] | 8.40
24 | O=C(N1CC2(CC(n3cnc(C4CC4)n3)C2)C1)N1CC2(CN(Cc3nc(C(F)(F)F)cs3)C2)C1 [Example 53, [6-(3-cyclopropyl-1,2,4-triazol-1-yl)-2-azaspiro[3.3]heptan-2-yl]-[6-[[4-(trifluoromethyl)thiazol-2-yl]methyl]-2,6-diazaspiro[3.3]heptan-2-yl]methanone] | 8.58
25 | O=C(N1CC2(CC(c3cc(C4CC4)n[nH]3)C2)C1)N1CC2(CN(Cc3cnn(C(F)(F)F)c3)C2)C1 [Example 180, [6-(3-cyclopropyl-1H-pyrazol-5-yl)-2-azaspiro[3.3]heptan-2-yl]-[6-[[1-(trifluoromethyl)pyrazol-4-yl]methyl]-2,6-diazaspiro[3.3]heptan-2-yl]methanone] | 7.63
